From patent US12624017B2, “Salt form of isoquinolinone type compound as rock inhibitor and preparation method therefor” (GUANGZHOU OCUSUN OPHTHALMIC BIOTECHNOLOGY CO., LTD., priority 2020, dated 2026)

Experiments:
Format in all cases: in vivo, New Zealand white rabbits
[1] = tested on: New Zealand rabbits suffered with acute intraocular hypertension; test: Intraocular pressure reduction test in acute intraocular hypertension model; details: for Intraocular pressure in left eye: left eye (solvent only); for Intraocular pressure in right eye: 50 μL, right eye (modelled, dosed)
From the text: Acute intraocular hypertension was induced for rabbits by injection of a viscoelastic agent into the anterior chamber, and the effects of ocular pressure reduction of the compound of formula (I) were inspected by administration of eye drops at different concentrations.
Male New Zealand white rabbits, aged 97 to 127 days, weighted 2.5 to 3.4 kg, purchased from Pizhou Oriental Breeding Co., Ltd.
50 male New Zealand white rabbits were randomly divided into 5 groups according to body weight, 10 rabbits/group. The anterior chambers of the right eyes of animals in Groups 1 to 5 were injected with medical sodium hyaluronate gel in a single dose, 100 μL/eye, to induce ocular hypertension in the animals. In 5 to 15 min after molding, the right eye was administrated dropwise with the solvent, K-115, and the test article (compounds of formula (I) of different concentrations), and the left eye was administrated dropwise with the solvent, 50 μL/eye; and the intraocular pressures of the animals in both eyes were measured before administration, as well as at 2, 4, 6, 8, and 10 h after administration, respectively.

[2] = tested on: New Zealand rabbits with normal intraocular pressure; test: Intraocular pressure reduction, normal intraocular pressure, Day 1 (Operation II); details: for Average intraocular pressure in both eyes: Day 1
From the text: An intraocular pressure reduction effect and potential ocular toxicity of the compound of formula (I) were inspected with rabbits with normal intraocular pressure by repeated administration of eye drops for 14 days.
Male New Zealand white rabbits, aged 97 to 127 days, weighted 2.6-3.5 kg, purchased from Pizhou Oriental Breeding Co., Ltd.
(§1) 42 male New Zealand white rabbits were randomly grouped into 7 groups according to body weights, 6 rabbits/group. Among the animals in Groups 1-7, the left eye was administrated dropwise with normal saline, and the right eye was administrated dropwise with a solvent/control/test article in an administration volume of 50 μL/eye respectively, once a day for 14 consecutive days, and the day of first administration was recorded as Day 1. The intraocular pressures of the animals were measured before administration on Day 1, as well as at 1 h, 2 h, 4 h, 6 h, 8 h and 10 h after administration on Day 1 (Table 10).

[3] = tested on: New Zealand rabbits with normal intraocular pressure; test: Eye irritation response detection with hand-held slit lamp, 14 days eye drops; details: 0.25 to 4 mg/mL; 14 consecutive days; 50 μl/eye/day
Procedure: as §1
Animals were subjected to eye irritation response detection and fluorescein sodium detection (scored according to scoring criteria) in both eyes with a hand-held slit lamp before the start of test (Day −2/Day −1), before daily administration (Day 1 to Day 14), and at 1 h, 2 h, 4 h, 24 h, 48 h, and 72 h after the last administration (Day 14).
Animals were subjected to eye irritation response detection in both eyes with a handheld slit lamp on Day −2 to Day −1 before the start of test, before first administration every day (Day 1 to Day 14), and at 1 h, 2 h, 4 h, 24 h, 48 h, and 72 h after the last administration. The scoring criteria were as follows: […]

## Cc1ccc(C(=O)OCn2cc(C)c3c(S(=O)(=O)N4CC[C@H](N)C4)cccc3c2=O)c(C)c1 [Compound of formula (I)]
[1]; 0.25 mg/mL group, 2 h after administration
  Intraocular pressure in left eye: 6.07 mmHg
[1]; 0.25 mg/mL group, 4 h after administration
  Intraocular pressure in left eye: 6.60 mmHg
[1]; 0.25 mg/mL group, 6 h after administration
  Intraocular pressure in left eye: 9.10 mmHg
[1]; 0.25 mg/mL group, 8 h after administration
  Intraocular pressure in left eye: 11.50 mmHg
[1]; 0.25 mg/mL group, 10 h after administration
  Intraocular pressure in left eye: 12.43 mmHg
[1]; 0.25 mg/mL group, before administration
  Intraocular pressure in left eye: 10.53 mmHg
[1]; 0.25 mg/mL, 2 h after administration
  Intraocular pressure in right eye: 8.47 mmHg
[1]; 0.25 mg/mL, 4 h after administration
  Intraocular pressure in right eye: 8.60 mmHg
[1]; 0.25 mg/mL, 6 h after administration
  Intraocular pressure in right eye: 11.20 mmHg
[1]; 0.25 mg/mL, 8 h after administration
  Intraocular pressure in right eye: 13.37 mmHg
[1]; 0.25 mg/mL, 10 h after administration
  Intraocular pressure in right eye: 13.10 mmHg
[1]; 0.25 mg/mL, before administration
  Intraocular pressure in right eye: 11.43 mmHg
[1]; 2.0 mg/mL group, 2 h after administration
  Intraocular pressure in left eye: 6.60 mmHg
[1]; 2.0 mg/mL group, 4 h after administration
  Intraocular pressure in left eye: 7.04 mmHg
[1]; 2.0 mg/mL group, 6 h after administration
  Intraocular pressure in left eye: 11.23 mmHg
[1]; 2.0 mg/mL group, 8 h after administration
  Intraocular pressure in left eye: 12.84 mmHg
[1]; 2.0 mg/mL group, 10 h after administration
  Intraocular pressure in left eye: 13.10 mmHg
[1]; 2.0 mg/mL group, before administration
  Intraocular pressure in left eye: 11.27 mmHg
[1]; 2.0 mg/mL, 2 h after administration
  Intraocular pressure in right eye: 8.52 mmHg
[1]; 2.0 mg/mL, 4 h after administration
  Intraocular pressure in right eye: 11.56 mmHg
[1]; 2.0 mg/mL, 6 h after administration
  Intraocular pressure in right eye: 13.81 mmHg
[1]; 2.0 mg/mL, 8 h after administration
  Intraocular pressure in right eye: 12.96 mmHg
[1]; 2.0 mg/mL, 10 h after administration
  Intraocular pressure in right eye: 11.96 mmHg
[1]; 2.0 mg/mL, before administration
  Intraocular pressure in right eye: 11.23 mmHg
[1]; 8.0 mg/mL group, 2 h after administration
  Intraocular pressure in left eye: 5.93 mmHg
[1]; 8.0 mg/mL group, 4 h after administration
  Intraocular pressure in left eye: 6.43 mmHg
[1]; 8.0 mg/mL group, 6 h after administration
  Intraocular pressure in left eye: 10.10 mmHg
[1]; 8.0 mg/mL group, 8 h after administration
  Intraocular pressure in left eye: 11.87 mmHg
[1]; 8.0 mg/mL group, 10 h after administration
  Intraocular pressure in left eye: 13.19 mmHg
[1]; 8.0 mg/mL group, before administration
  Intraocular pressure in left eye: 11.20 mmHg
[1]; 8.0 mg/mL, 2 h after administration
  Intraocular pressure in right eye: 7.40 mmHg
[1]; 8.0 mg/mL, 4 h after administration
  Intraocular pressure in right eye: 7.97 mmHg
[1]; 8.0 mg/mL, 6 h after administration
  Intraocular pressure in right eye: 8.84 mmHg
[1]; 8.0 mg/mL, 8 h after administration
  Intraocular pressure in right eye: 8.60 mmHg
[1]; 8.0 mg/mL, 10 h after administration
  Intraocular pressure in right eye: 8.78 mmHg
[1]; 8.0 mg/mL, before administration
  Intraocular pressure in right eye: 11.53 mmHg
[1]; at different test doses (0.25, 2.0, 8.0 mg/mL), amplitude and sustained effect better than K-115
  Intraocular pressure reduction effect (conclusion): good intraocular pressure reduction effects
[2]; 0.25 mg/mL in right eye, 1 h after administration
  Average intraocular pressure in both eyes: 6.22 mmHg
[2]; 0.25 mg/mL in right eye, 2 h after administration
  Average intraocular pressure in both eyes: 6.17 mmHg
[2]; 0.25 mg/mL in right eye, 4 h after administration
  Average intraocular pressure in both eyes: 6.67 mmHg
[2]; 0.25 mg/mL in right eye, 6 h after administration
  Average intraocular pressure in both eyes: 8.06 mmHg
[2]; 0.25 mg/mL in right eye, 8 h after administration
  Average intraocular pressure in both eyes: 9.72 mmHg
[2]; 0.25 mg/mL in right eye, 10 h after administration
  Average intraocular pressure in both eyes: 10.95 mmHg
[2]; 0.25 mg/mL in right eye, before administration
  Average intraocular pressure in both eyes: 9.84 mmHg
[2]; 0.5 mg/mL in right eye, 1 h after administration
  Average intraocular pressure in both eyes: 5.39 mmHg
[2]; 0.5 mg/mL in right eye, 2 h after administration
  Average intraocular pressure in both eyes: 5.50 mmHg
[2]; 0.5 mg/mL in right eye, 4 h after administration
  Average intraocular pressure in both eyes: 6.95 mmHg
[2]; 0.5 mg/mL in right eye, 6 h after administration
  Average intraocular pressure in both eyes: 8.94 mmHg
[2]; 0.5 mg/mL in right eye, 8 h after administration
  Average intraocular pressure in both eyes: 9.89 mmHg
[2]; 0.5 mg/mL in right eye, 10 h after administration
  Average intraocular pressure in both eyes: 11.56 mmHg
[2]; 0.5 mg/mL in right eye, before administration
  Average intraocular pressure in both eyes: 9.22 mmHg
[2]; 1.0 mg/mL in right eye, 1 h after administration
  Average intraocular pressure in both eyes: 5.56 mmHg
[2]; 1.0 mg/mL in right eye, 2 h after administration
  Average intraocular pressure in both eyes: 5.39 mmHg
[2]; 1.0 mg/mL in right eye, 4 h after administration
  Average intraocular pressure in both eyes: 6.67 mmHg
[2]; 1.0 mg/mL in right eye, 6 h after administration
  Average intraocular pressure in both eyes: 7.33 mmHg
[2]; 1.0 mg/mL in right eye, 8 h after administration
  Average intraocular pressure in both eyes: 10.50 mmHg
[2]; 1.0 mg/mL in right eye, 10 h after administration
  Average intraocular pressure in both eyes: 10.89 mmHg
[2]; 1.0 mg/mL in right eye, before administration
  Average intraocular pressure in both eyes: 9.17 mmHg
[2]; 2.0 mg/mL in right eye, 1 h after administration
  Average intraocular pressure in both eyes: 8.11 mmHg
[2]; 2.0 mg/mL in right eye, 2 h after administration
  Average intraocular pressure in both eyes: 5.84 mmHg
[2]; 2.0 mg/mL in right eye, 4 h after administration
  Average intraocular pressure in both eyes: 6.06 mmHg
[2]; 2.0 mg/mL in right eye, 6 h after administration
  Average intraocular pressure in both eyes: 7.11 mmHg
[2]; 2.0 mg/mL in right eye, 8 h after administration
  Average intraocular pressure in both eyes: 9.00 mmHg
[2]; 2.0 mg/mL in right eye, 10 h after administration
  Average intraocular pressure in both eyes: 10.05 mmHg
[2]; 2.0 mg/mL in right eye, before administration
  Average intraocular pressure in both eyes: 9.72 mmHg
[2]; 4.0 mg/mL in right eye, 1 h after administration
  Average intraocular pressure in both eyes: 6.61 mmHg
[2]; 4.0 mg/mL in right eye, 2 h after administration
  Average intraocular pressure in both eyes: 5.84 mmHg
[2]; 4.0 mg/mL in right eye, 4 h after administration
  Average intraocular pressure in both eyes: 5.72 mmHg
[2]; 4.0 mg/mL in right eye, 6 h after administration
  Average intraocular pressure in both eyes: 6.61 mmHg
[2]; 4.0 mg/mL in right eye, 8 h after administration
  Average intraocular pressure in both eyes: 8.39 mmHg
[2]; 4.0 mg/mL in right eye, 10 h after administration
  Average intraocular pressure in both eyes: 10.67 mmHg
[2]; 4.0 mg/mL in right eye, before administration
  Average intraocular pressure in both eyes: 10.00 mmHg
[2]; all tested doses (0.25 to 4.0 mg/mL), compared with K-115
  Efficacy of single administration (conclusion): better efficacy
[3]
  Eye irritation (conclusion): no irritation
